Measurements from ChEMBL document CHEMBL1128034, “Structure activity of topoisomerase i poisons related to hoechst 33342” (Bioorg Med Chem Lett, 1994).

Experiments:
Assay type in all cases: functional, cell-based; call rule not given here
[1] = tested on: RPMI 8402; test: Cytotoxicity towards camptothecin resistant CPT-K5 cell line in human
[2] = tested on: PC-3; test: Cytotoxicity towards prostatic carcinoma (PC3) cells in human
[3] = tested on: RPMI 8402; test: Cytotoxicity towards lymphoblastoma (RPMI 8402) cells in human
[4] = tested on: SK-MEL; test: Cytotoxicity towards melanoma (SK-Mel) cells in human
[5] = tested on: PC-3; test: Cytotoxicity towards prostatic carcinoma (PC3) cells in human; Not active
[6] = tested on: SK-MEL; test: Cytotoxicity towards melanoma (SK-Mel) cells in human; Not active

Structure (SMILES) | IC50 [1] [nM] | IC50 [2] [nM] | IC50 [3] [nM] | IC50 [4] [nM] | IC50 [5] | IC50 [6]
COc1ccc(-c2nc3cc(-c4nc5cc(N6CCN(C)CC6)ccc5[nH]4)ccc3[nH]2)cc1 | 570 | 840 | < 50 | 1100 |  | 
COc1ccc(-c2nc3cc(-c4nc5cc(CN(C)C)ccc5[nH]4)ccc3[nH]2)cc1 | 6300 | 52000 | 380 | 10000 |  | 
CCOc1ccc(-c2nc3cc(-c4nc5cc(N6CCN(C)CC6)ccc5[nH]4)ccc3[nH]2)cc1 | 500 | 710 | 5 | 1600 |  | 
COc1ccc(-c2nc3cc(-c4nc5cc(CCCN(C)C)ccc5[nH]4)ccc3[nH]2)cc1 | 7100 | 28000 | 1200 | 10000 |  | 
COc1ccc(-c2nc3cc(-c4nc5cc(CCN(C)C)ccc5[nH]4)ccc3[nH]2)cc1 | 6100 | 43000 | 610 | 8500 |  | 
COc1ccc(-c2nc3cc(-c4nc5cc(N)ccc5[nH]4)ccc3[nH]2)cc1 | 14000 | 19000 | 1700 | 6200 |  | 
COc1ccc(-c2nc3cc(-c4nc5cc(N(C)C)ccc5[nH]4)ccc3[nH]2)cc1 | 650 | 4900 | 130 | 26000 |  | 
COc1ccc(-c2nc3cc(-c4nc5cc([N+](=O)[O-])ccc5[nH]4)ccc3[nH]2)cc1 | 3900 |  | 650 |  | Not Active | Not Active
COc1ccc(-c2nc3cc(-c4nc5cc(OC6CCN(C)CC6)ccc5[nH]4)ccc3[nH]2)cc1 | 440 | 380 | < 40 | 2000 |  | 
